Assay results: the NIST ThermoML archive (doi:10.1021/je8009545)

Tests used:
[1] = Gas; for mass density: Gas pipette; for viscosity: Oscillating disk viscometry
[2] = xn = mol fraction of the nth substance listed; conditions: Gas, x2 = 0; for mass density: Gas pipette; for viscosity: Oscillating disk viscometry

COC [dimethyl ether]
[1]
Conditions | mass density [kg/m3] | viscosity [mPa·s]
298.15 K, 101 kPa | 1.91 | 0.00922
298.15 K, 296 kPa | 6.081 | 0.00918
298.15 K, 475 kPa | 10.06 | 0.0091
323.15 K, 101 kPa | 1.652 | 0.00997
323.15 K, 295 kPa | 5.561 | 0.00996
323.15 K, 490 kPa | 9.31 | 0.00993
323.15 K, 736 kPa | 14.71 | 0.00995
323.15 K, 976 kPa | 22.53 | 0.00994
348.15 K, 101 kPa | 1.332 | 0.01081
348.15 K, 305 kPa | 5.17 | 0.01081
348.15 K, 551 kPa | 9.705 | 0.01082
348.15 K, 1006 kPa | 19.03 | 0.01085
348.15 K, 1561 kPa | 35.81 | 0.01094
348.15 K, 1850 kPa | 44.66 | 0.01106
373.15 K, 101 kPa | 1.235 | 0.01161
373.15 K, 305 kPa | 4.748 | 0.0116
373.15 K, 500 kPa | 7.787 | 0.01162
373.15 K, 1028 kPa | 16.71 | 0.01168
373.15 K, 1940 kPa | 35.33 | 0.01191
373.15 K, 2505 kPa | 51.25 | 0.01219
373.15 K, 2875 kPa | 67.49 | 0.01247
373.15 K, 3049 kPa | 74.07 | 0.01261
398.15 K, 101 kPa | 0.948 | 0.01234
398.15 K, 300 kPa | 4.392 | 0.01237
398.15 K, 531 kPa | 7.678 | 0.01239
398.15 K, 992 kPa | 15.1 | 0.01244
398.15 K, 2085 kPa | 34.47 | 0.01274
398.15 K, 2985 kPa | 54.66 | 0.01317
398.15 K, 3965 kPa | 87.68 | 0.0141
398.15 K, 4480 kPa | 112.3 | 0.01504
398.15 K, 4620 kPa | 122.4 | 0.01543
423.15 K, 101 kPa | 1.009 | 0.01332
423.15 K, 310 kPa | 4.289 | 0.01333
423.15 K, 505 kPa | 6.812 | 0.01335
423.15 K, 985 kPa | 13.75 | 0.01342
423.15 K, 2022 kPa | 30.21 | 0.0137
423.15 K, 3004 kPa | 48.47 | 0.01413
423.15 K, 4015 kPa | 71.3 | 0.01477
423.15 K, 4495 kPa | 86.57 | 0.01521
423.15 K, 4912 kPa | 99.15 | 0.01568

N#N [nitrogen]
[1]
Conditions | mass density [kg/m3] | viscosity [mPa·s]
298.15 K, 101 kPa | 1.178 | 0.01786
298.15 K, 240 kPa | 2.833 | 0.01788
298.15 K, 672 kPa | 7.705 | 0.01794
323.15 K, 101 kPa | 0.858 | 0.01901
323.15 K, 290 kPa | 3.114 | 0.01904
323.15 K, 466 kPa | 4.925 | 0.01906
323.15 K, 856 kPa | 9.024 | 0.01911
348.15 K, 101 kPa | 0.761 | 0.0201
348.15 K, 518 kPa | 5.043 | 0.02016
348.15 K, 1010 kPa | 9.8 | 0.02022
348.15 K, 2028 kPa | 19.63 | 0.02037
373.15 K, 101 kPa | 0.633 | 0.02116
373.15 K, 495 kPa | 4.527 | 0.02121
373.15 K, 1000 kPa | 8.832 | 0.02126
373.15 K, 2006 kPa | 18.01 | 0.0214
373.15 K, 2930 kPa | 26.15 | 0.02152
373.15 K, 3985 kPa | 35.64 | 0.02168
373.15 K, 4966 kPa | 44.7 | 0.02184
398.15 K, 101 kPa | 0.727 | 0.02219
398.15 K, 520 kPa | 4.329 | 0.02222
398.15 K, 1003 kPa | 8.657 | 0.02228
398.15 K, 2000 kPa | 16.49 | 0.0224
398.15 K, 3473 kPa | 28.94 | 0.02259
398.15 K, 4849 kPa | 40.28 | 0.02278
423.15 K, 101 kPa | 0.568 | 0.02318
423.15 K, 550 kPa | 4.226 | 0.02322
423.15 K, 1032 kPa | 8.294 | 0.02328
423.15 K, 2012 kPa | 15.86 | 0.02338
423.15 K, 3435 kPa | 26.9 | 0.02354
423.15 K, 4832 kPa | 37.69 | 0.02373

N#N [nitrogen] + COC
[2]
Conditions | mass density [kg/m3] | viscosity [mPa·s]
298.15 K, 101 kPa | 1.178 | 0.01786
298.15 K, 240 kPa | 2.833 | 0.01788
298.15 K, 672 kPa | 7.705 | 0.01794
323.15 K, 101 kPa | 0.858 | 0.01901
323.15 K, 290 kPa | 3.114 | 0.01904
323.15 K, 466 kPa | 4.925 | 0.01906
323.15 K, 856 kPa | 9.024 | 0.01911
348.15 K, 101 kPa | 0.761 | 0.0201
348.15 K, 518 kPa | 5.043 | 0.02016
348.15 K, 1010 kPa | 9.8 | 0.02022
348.15 K, 2028 kPa | 19.63 | 0.02037
373.15 K, 101 kPa | 0.633 | 0.02116
373.15 K, 495 kPa | 4.527 | 0.02121
373.15 K, 1000 kPa | 8.832 | 0.02126
373.15 K, 2006 kPa | 18.01 | 0.0214
373.15 K, 2930 kPa | 26.15 | 0.02152
373.15 K, 3985 kPa | 35.64 | 0.02168
373.15 K, 4966 kPa | 44.7 | 0.02184
398.15 K, 101 kPa | 0.727 | 0.02219
398.15 K, 520 kPa | 4.329 | 0.02222
398.15 K, 1003 kPa | 8.657 | 0.02228
398.15 K, 2000 kPa | 16.49 | 0.0224
398.15 K, 3473 kPa | 28.94 | 0.02259
398.15 K, 4849 kPa | 40.28 | 0.02278
423.15 K, 101 kPa | 0.568 | 0.02318
423.15 K, 550 kPa | 4.226 | 0.02322
423.15 K, 1032 kPa | 8.294 | 0.02328
423.15 K, 2012 kPa | 15.86 | 0.02338
423.15 K, 3435 kPa | 26.9 | 0.02354
423.15 K, 4832 kPa | 37.69 | 0.02373
